The target in data set [1] is T1, NaV1.7 (Homo sapiens, UniProt Q15858).
T1 construct: expressed in transfected cells; host or cells: HEK293 (tetracycline-inducible)
Nature of the data set: Automated patch clamp (Qube 384), external block of NaV1.7. Format: cell-based. As to conditions: IC50, compound in external solution, HEK293 cells, read-out: Nav1.7 Extracellular Inhibition. The protocol: (§1) NaV1.7 was expressed in HEK293 cells upon induction with tetracycline. Cells were cultured in DMEM containing 10% dialyzed Fetal Bovine Serum (VWR, Radnor, Pa.), 1% Glutamax (VWR, Radnor, Pa.), 1% Penicillin-Streptomycin (VWR, Radnor, Pa.), 100 mg/L Hygromycin (Thermo Fisher Scientific, Waltham, Mass. and 5 mg/L Blasticidin (Alfa Aesar, Haverhill, Mass.). Cells were grown and maintained at 37° C. in a humidified environment containing 10% CO2 in air. Cells were detached from the culture flask for passage and harvested using 0.05% Trypsin-EDTA (Thermo Fisher Scientific, Waltham, Mass.). To induce NaV1.7, cells were induced with tetracycline (0.1-1 μg/mL, IBI Scientific, Peosta, Iowa) the day before recording.
(§2) Before experiments, cells were washed with DPBS (VWR, Radnor, Pa.), digested with Detachin (VWR Radnor, Pa.) and then triturated 10 times in CHO Serum-Free Media (VWR Radnor, Pa.) to resuspend the cells and to break apart cell aggregates. Cells were counted and the final concentration was set at 2-5 million cells per mL.
(§3) The intracellular solution contained the following: 140 mM CsF, 1 mM/5 mM EGTA/CsOH, 10 mM HEPES, 10 mM NaCl, adjusted to pH 7.3 with CsOH, and osmolality to 320 with OSM solution. The external solution contained the following: 145 mM NaCl, 4 mM KCl, 1 mM MgCl2, 2 mM CaCl2), 10 mM HEPES, 10 mM Glucose, adjusted to pH 7.4 with CsOH and osmolality to 305 with OSM solution. The OSM solution was a normal Ringer solution containing (in mM) NaCl 155, HEPES 10, sucrose, KCl 3.5, CaCl2) 1.5, MgCl2 1 adjusted to pH 7.4 with NaOH. All chemicals are from Sigma-Aldrich, St. Louis, Mo. In order to test the degree of internal block by test compounds, the compounds were dissolved in internal solution at the indicated test concentration. […] In order to test the degree of external block by test compounds the compounds were dissolved in external solution at the indicated test concentration.
(§4) Automated Patch Clamps were performed on Qube 384 (Sophion Bioscience, Woburn Mass.) with multihole Qchips at a temperature setting of 22 degrees. The whole cells configuration was formed with default Qube seal and break-in parameter. The membrane potential was held at −100 mV before the voltage protocol began. Two voltage protocols were followed.
(§5) Step 1: Cells were held at −100 mV with a depolarized pulse to −20 mV for 10 ms, the interval was set at 5 s. Currents were corrected by default leak subtraction from every pulse. The duration was set at 5 mins.
(§6) Step 2: Cells were held at −100 mV with a depolarized pulse to −20 mV for 10 ms. The frequency was 5 Hz. Currents were corrected by leak subtraction calculated before step 2. The duration was set at 4 mins.
After Step 2, the external solution was changed with solutions containing test compounds. Qchips were held at −100 mV without pulsing. The total solution switching time was 8 minutes. After the external solution exchange, cells were recorded using the same procedure as step 2 for 10 minutes.
Data analysis was performed by Sophion Analyzer. Data were corrected with control cells (Non-Drug). The IC50 data were plotted with DR-plots/Hill function (a dose-response plot with a Hill fit). Representative examples of the invention were tested for extracellular inhibition of NaV 1.7 in the automated patch clamp assay. Activity Range is reported as IC50: “++++” ([…], “+++” (1-3 μM), “++” ([…]) or “+” (>10 μM). The results are presented below.
(The patch-clamp technique gives a direct electrical read-out from membranes.)

Data set [2] concerns the target T1, NaV1.7. Nature of the data set: Automated patch clamp (Qube 384), internal block of NaV1.7. As to conditions: IC50, compound in internal solution, HEK293 cells, read-out: Nav1.7 Intracellular Inhibition. Format: cell-based. The protocol:
as §1, §2, §3, §4, §5, §6
After Step 2, the Qchip was removed from the recording chamber. The internal solution was changed with solutions containing test compounds. Qchips were held at −100 mV without pulsing after being replaced in the recording chamber. The total solution switching time was 8 minutes. After the internal solution exchange, Cells were recorded and step 2 for repeated for 10 minutes.
Data analysis was performed by Sophion Analyzer. Cells were filtered with minimum 50 MOhm seal resistance and minimum 5 nA starting current. The rundown of the currents was corrected with control cells (Non-Drug). The remaining was calculated by averaging last 3 points in the end of experiments. The base line was calculated as the average of last 3 points of Step 2.
IC50 curves were plotted with DR-plots/Hill function (a dose-response plot with a Hill fit).
Representative examples of the invention were tested for intracellular inhibition of NaV 1.7 in the automated patch clamp assay. Activity Range is reported as IC50: “++++” (<0.3 μM), “+++” (0.3-1 μM), “++” (1-3 μM) or “+” (3-10 μM).

The nature of data set [3]: PAMPA membrane permeability assay. As to conditions: permeability coefficient, pH 7.4 buffer, GIT lipid, 4 hours incubation. The class given is in vitro ADME. The essentials: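 Passive diffusion across a GIT-lipid-painted artificial membrane at pH 7.4, with a 50 uM donor stock diluted from DMSO and a 4 h incubation. UV spectra of the donor, acceptor and reference plates were read, and the permeability coefficient was calculated from the AUCs, in 10^−6 cm/s.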

Data set [4] concerns the target T1, NaV1.7. Nature of the data set: Manual patch clamp, external block of NaV1.7 current. The class given is cell-based. As to conditions: % inhibition at 10 μM test concentration, compound in external solution, HEK293 cells, read-out: Nav1.7 Extracellular Inhibition. The protocol: Representative compounds of the invention were synthesized according to the described methods and tested for the ability to inhibit voltage-gated sodium channels.
as §1, with “recording and plated onto 24-well plates. Cells were washed with DPBS (VWR, Radnor, Pa.), trypsinized and then triturated five times in 10 mL of growth media to break apart cell aggregates. For one 24-well plate, 2 mL of cell suspension was mixed with 23 mL of fresh growth media and 0.1-1 μg/mL tetracycline added. 1 ml of mixed media with cells was then added to each well of a 24-well plate, with a 12 mm coverslip already placed in the bottom of the well. Cells were then incubated in 37° C. and 10% CO2 overnight.” for “recording.”
The intracellular solution contained the following (in mM) CsCl 135, NaCl 10, EGTA 10, HEPES 10, MgCl2 2, adjusted to pH 7.2 with CsOH. The external solution was a normal Ringer solution containing (in mM) NaCl 155, HEPES 10, glucose 10, KCl 3.5, CaCl2 1.5, MgCl2 1 adjusted to pH 7.4 with NaOH. CsCl is from Alfa Aesar, Haverhill, Mass. All other chemicals are from Sigma-Aldrich, St. Louis, Mo. In order to test the degree of internal block by test compounds the compounds were dissolved in internal solution at the indicated test concentration. […] In order to test the degree of external block by test compounds the compounds were dissolved in external solution at the indicated test concentration.
18-24 hours after cells were induced with tetracycline, coverslips were placed into a chamber filled with Normal Ringer solution at room temperature and the chamber placed on a microscope. Pipettes were pulled from borosilicate glass on a P97 puller (Sutter Instrument, Novato, Calif.) and polished with a MF-830 Microforge (Narishige International USA, Inc., Amityville, N.Y.) to have a resistance of 1.5-2.5 MΩ when filled with CsCl internal solution at room temperature. Healthy cells (those that are round and translucent with no visible blemishes) were chosen for seal formation. A seal was formed between the pipette and the cell, and a brief pulse of suction was used to “break in” and establish the whole-cell configuration. The membrane potential was held at −100 mV before the voltage protocol began. Only cells with series resistance between 1.5-5 MΩ were retained for analysis. The voltage protocol was as follows: Cells were held at −100 mV for 12 ms followed by a hyperpolarizing step to −105 mV for 12 ms to monitor the leak. Cells were then stepped back to −100 mV for 40 ms. Cells were then depolarized to −20 mV for 10 ms and then returned to −100 mV for 26 ms.
Once the recording was started, the voltage protocol was run at 30 second intervals for 5 minutes to get a stable baseline. This is followed by 5 Hz stimulation of the same voltage protocol run until the end of experiment. […] The test compound is added for 5 minutes before washing out with normal Ringer's solution. Currents were recorded using PatchMaster software with Heka EPC10 (HEKA Electronics, Lambrecht, Germany). Only cells with inward current amplitudes at −20 mV between 400 pA and 4 nA were accepted. In addition, cells having leak currents greater than 10% of their current amplitudes were discarded. […]

Data set [5] concerns the target T1, NaV1.7. Nature of the data set: Manual patch clamp, internal block of NaV1.7 current. The class given is cell-based. As to conditions: compound in internal solution, HEK293 cells, read-out: Nav1.7 Intracellular Inhibition; for inhibition at 3 µM: % inhibition at 3 μM test concentration; for inhibition at 10 µM: % inhibition at 10 μM test concentration. The essentials: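 Whole-cell recordings at room temperature in tetracycline-induced HEK293 cells, compound in CsCl internal solution (pH 7.2), held at −100 mV with 10 ms steps to −20 mV. Four 30 s 5 Hz trains after 5 min baseline; fraction of peak inward current remaining computed as Itest/Ibaseline.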

The source of these data is patent US11603355B2, “Charged ion channel blockers and methods for use” (Nocion Therapeutics, Inc., priority 2019, dated 2023).

T1 sequence (Q15858 whole entry): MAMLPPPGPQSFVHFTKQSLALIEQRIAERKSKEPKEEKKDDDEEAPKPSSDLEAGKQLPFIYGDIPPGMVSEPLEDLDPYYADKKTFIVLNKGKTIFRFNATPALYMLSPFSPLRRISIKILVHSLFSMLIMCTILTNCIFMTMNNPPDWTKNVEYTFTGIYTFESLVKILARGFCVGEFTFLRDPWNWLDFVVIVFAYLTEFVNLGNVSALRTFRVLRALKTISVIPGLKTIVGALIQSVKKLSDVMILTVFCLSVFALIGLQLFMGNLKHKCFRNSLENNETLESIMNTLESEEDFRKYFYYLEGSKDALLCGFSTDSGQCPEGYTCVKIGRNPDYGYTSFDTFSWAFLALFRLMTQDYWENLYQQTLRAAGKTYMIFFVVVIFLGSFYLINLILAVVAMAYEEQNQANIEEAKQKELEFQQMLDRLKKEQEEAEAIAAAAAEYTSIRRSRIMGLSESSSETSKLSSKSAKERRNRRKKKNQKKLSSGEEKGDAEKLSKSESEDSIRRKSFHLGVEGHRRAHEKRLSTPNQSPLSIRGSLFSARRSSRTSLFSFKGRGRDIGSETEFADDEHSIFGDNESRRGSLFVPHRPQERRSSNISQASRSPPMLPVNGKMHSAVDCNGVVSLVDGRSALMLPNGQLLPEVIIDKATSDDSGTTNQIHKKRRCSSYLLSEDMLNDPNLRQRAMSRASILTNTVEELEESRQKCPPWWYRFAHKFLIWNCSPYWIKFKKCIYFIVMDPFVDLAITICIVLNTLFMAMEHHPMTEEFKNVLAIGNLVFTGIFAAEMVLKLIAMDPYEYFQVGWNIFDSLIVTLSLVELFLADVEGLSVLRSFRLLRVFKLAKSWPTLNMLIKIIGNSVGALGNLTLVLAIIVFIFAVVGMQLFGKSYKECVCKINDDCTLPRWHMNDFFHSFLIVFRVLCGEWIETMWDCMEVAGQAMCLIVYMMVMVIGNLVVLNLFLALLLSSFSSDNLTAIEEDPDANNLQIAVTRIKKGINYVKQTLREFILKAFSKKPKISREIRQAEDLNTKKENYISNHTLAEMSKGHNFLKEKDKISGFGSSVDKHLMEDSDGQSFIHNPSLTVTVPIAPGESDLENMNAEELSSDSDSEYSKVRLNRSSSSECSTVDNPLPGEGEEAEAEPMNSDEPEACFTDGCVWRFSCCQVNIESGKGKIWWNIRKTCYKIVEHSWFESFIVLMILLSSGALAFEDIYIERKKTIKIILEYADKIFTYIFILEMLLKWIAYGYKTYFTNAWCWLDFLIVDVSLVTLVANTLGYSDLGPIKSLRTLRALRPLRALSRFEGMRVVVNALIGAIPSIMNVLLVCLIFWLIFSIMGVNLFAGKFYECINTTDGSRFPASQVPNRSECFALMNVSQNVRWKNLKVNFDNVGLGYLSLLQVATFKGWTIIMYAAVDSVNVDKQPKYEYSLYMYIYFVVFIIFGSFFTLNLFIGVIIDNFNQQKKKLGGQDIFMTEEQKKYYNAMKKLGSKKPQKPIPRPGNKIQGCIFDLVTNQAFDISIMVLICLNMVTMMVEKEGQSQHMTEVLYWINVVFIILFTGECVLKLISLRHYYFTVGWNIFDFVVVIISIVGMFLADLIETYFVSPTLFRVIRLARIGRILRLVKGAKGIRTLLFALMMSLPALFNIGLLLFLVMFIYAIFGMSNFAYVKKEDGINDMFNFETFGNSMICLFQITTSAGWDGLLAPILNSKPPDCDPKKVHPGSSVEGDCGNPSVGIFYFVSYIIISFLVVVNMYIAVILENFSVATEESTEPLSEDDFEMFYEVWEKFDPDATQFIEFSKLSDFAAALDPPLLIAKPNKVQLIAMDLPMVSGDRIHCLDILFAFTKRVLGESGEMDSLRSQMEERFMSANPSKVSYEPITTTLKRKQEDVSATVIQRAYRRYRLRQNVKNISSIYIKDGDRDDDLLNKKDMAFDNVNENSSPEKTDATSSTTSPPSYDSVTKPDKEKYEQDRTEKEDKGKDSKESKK

`Cc1cccc(C)c1NC(=O)C[N+]1(Cc2ccccc2)CCCC(C(=O)N2CCCCCC2)C1` (stereo not drawn) [Compound 64A]: the values for the IC50 in data set [1] and in data set [2] were 3 to 10 µM and 1 to 3 µM, respectively. Besides, in data set [3], the “PAMPA (10^−6 cm/s)” value is reported as “+ (“+” (<0.1 10^−6 cm/s))”.
In the same order, the values of `Br.CCCCOC(=O)C1CCC[N+](CC(=O)Nc2c(C)cccc2C)(Cc2ccccc2)C1` (stereo not drawn) [Compound 49A] are 3 to 10 µM, 1 to 3 µM and “+ (“+” (<0.1 10^−6 cm/s))”.
For `CCC(C(=O)Nc1c(C)cccc1C)[N+]1(Cc2ccccc2F)CCCCC1` (stereo not drawn) [Compound 9A], the inhibition at 10 µM in data set [4] is below 40%. For the same molecule, the “PAMPA (10^−6 cm/s)” value in data set [3] was “+ (“+” (<0.1 10^−6 cm/s))”. Moreover, in data set [5], the inhibition at 3 µM is 70 to 90% and the inhibition at 10 µM was above 95%.
With `Cc1cccc(C)c1NC(=O)C[N+]1(Cc2ccccc2)CCCCC1` [Compound 4A, 1-benzyl-1-(2-((2,6-dimethylphenyl)amino)-2-oxoethyl)piperidin-1-ium bromide], the values for the inhibition at 10 µM in data set [4] and in data set [5] were below 40% and 70 to 95%, respectively. Besides, the inhibition at 3 µM in data set [5] was in the range of 70 to 90%.
`Cc1cccc(C)c1NC(=O)C[N+]1(Cc2ccccc2)CCCC(C(=O)OC2CCCCC2)C1.[Br-]` (stereo not drawn) [Compound 51A]: the IC50 in data set [1] and in data set [2] was 3 to 10 µM throughout. For the same molecule, the “PAMPA (10^−6 cm/s)” value in data set [3] was “+ (“+” (<0.1 10^−6 cm/s))”.
Regarding `Cc1cccc(C)c1NC(=O)C[N+]1(Cc2ccccc2)CCCC(C(=O)NCC(C)C)C1.[Br-]` (stereo not drawn) [Compound 58A], the IC50 is 3 to 10 µM in data set [1] and 1 to 3 µM in data set [2]. Further, the “PAMPA (10^−6 cm/s)” value in data set [3] was “+ (“+” (<0.1 10^−6 cm/s))”.
For `CCC(C(=O)Nc1c(C)cccc1C)[N+]1(Cc2ccccc2)CCCCC1.[Br-]` (stereo not drawn) [Compound 6A, 1-benzyl-1-(1-((2,6-dimethylphenyl)amino)-1-oxobutan-2-yl)piperidin-1-ium bromide], the inhibition at 10 µM in data set [4] was below 40%. For the same molecule, the “PAMPA (10^−6 cm/s)” value in data set [3] was “+ (“+” (<0.1 10^−6 cm/s))”. Further, in data set [5], the inhibition at 3 µM was 70 to 90% and the inhibition at 10 µM fell in the range of 70 to 95%.
Take `Cc1cccc(C)c1S(=O)(=O)CC[N+]1(Cc2ccccc2)CCCCCC1` [Compound 88A, 1-benzyl-1-(2-((2,6-dimethylphenyl)sulfonyl)ethyl) azepan-1-ium bromide]: the values for the IC50 in data set [1] and in data set [2] were above 10 µM and 3 to 10 µM, respectively.
In the same order, the values of `CC[N+](CC)(CCS(=O)(=O)c1c(C)cccc1C)Cc1ccccc1` [Compound 87A, N-benzyl-2-((2,6-dimethylphenyl)sulfonyl)-N, N-diethylethan-1-aminium bromide] are above 10 µM and 3 to 10 µM.
In the case of `Cc1cccc(C)c1NC(=O)C[N+]1(Cc2ccccc2)CCCCCC1.[Br-]` [Compound 3A, 1-benzyl-1-(2-((2,6-dimethylphenyl)amino)-2-oxoethyl) azepan-1-ium bromide], in data set [4], the inhibition at 10 µM is 40 to 70%. Besides, the “PAMPA (10^−6 cm/s)” value in data set [3] is reported as “+ (“+” (<0.1 10^−6 cm/s))”. Moreover, in data set [5], the inhibition at 3 µM was above 90% and the inhibition at 10 µM is above 95%.
For the molecule `Cc1cccc(C)c1OC(=O)C[N+]1(Cc2ccccc2)CCCCCC1` [Compound 83A, 1-benzyl-1-(2-(2,6-dimethylphenoxy)-2-oxoethyl) azepan-1-ium 2,2,2-trifluoroacetate], the values for the IC50 in data set [1] and in data set [2] were 1 to 3 µM and 0.3 to 1 µM, respectively.

One may read the inhibition as the drop in the measured response relative to a control, in per cent.
